Reference: ChEMBL document CHEMBL3046340, “In silico studies on 2,3-dihydro-1,5-benzothiazepines as cholinesterase inhibitors” (Med Chem Res, 2012)

Assays:
Cholinesterase = Cholinesterase (Homo sapiens, UniProt P06276); experiment: Inhibition of BChE (unknown origin) using butyrylthiocholine chloride as substrate preincubated for 15 min
Acetylcholinesterase = Acetylcholinesterase (Electrophorus electricus, UniProt O42275); experiment: Inhibition of Electrophorus electricus (electric eel) acetylcholinesterase (AChE) using acetylthiocholine iodide as substrate preincubated for 15 min
Acetylcholinesterase, sequence (O42275 whole entry): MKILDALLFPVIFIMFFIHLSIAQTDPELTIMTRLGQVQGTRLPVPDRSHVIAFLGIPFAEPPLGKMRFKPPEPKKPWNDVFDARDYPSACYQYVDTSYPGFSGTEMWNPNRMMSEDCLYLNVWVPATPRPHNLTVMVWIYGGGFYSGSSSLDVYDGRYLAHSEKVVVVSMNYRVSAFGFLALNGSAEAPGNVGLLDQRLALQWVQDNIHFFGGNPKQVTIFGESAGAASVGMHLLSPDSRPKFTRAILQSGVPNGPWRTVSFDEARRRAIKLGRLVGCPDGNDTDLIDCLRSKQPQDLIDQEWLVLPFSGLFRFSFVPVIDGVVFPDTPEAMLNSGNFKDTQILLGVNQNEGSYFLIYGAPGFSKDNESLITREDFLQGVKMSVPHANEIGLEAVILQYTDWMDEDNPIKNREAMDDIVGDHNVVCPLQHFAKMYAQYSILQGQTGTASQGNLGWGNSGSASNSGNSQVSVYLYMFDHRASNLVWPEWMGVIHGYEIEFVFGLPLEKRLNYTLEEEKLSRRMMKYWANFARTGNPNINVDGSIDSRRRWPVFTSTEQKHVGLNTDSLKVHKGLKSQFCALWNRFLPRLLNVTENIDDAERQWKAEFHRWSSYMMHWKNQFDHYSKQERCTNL

Cholinesterase, sequence (P06276 whole entry): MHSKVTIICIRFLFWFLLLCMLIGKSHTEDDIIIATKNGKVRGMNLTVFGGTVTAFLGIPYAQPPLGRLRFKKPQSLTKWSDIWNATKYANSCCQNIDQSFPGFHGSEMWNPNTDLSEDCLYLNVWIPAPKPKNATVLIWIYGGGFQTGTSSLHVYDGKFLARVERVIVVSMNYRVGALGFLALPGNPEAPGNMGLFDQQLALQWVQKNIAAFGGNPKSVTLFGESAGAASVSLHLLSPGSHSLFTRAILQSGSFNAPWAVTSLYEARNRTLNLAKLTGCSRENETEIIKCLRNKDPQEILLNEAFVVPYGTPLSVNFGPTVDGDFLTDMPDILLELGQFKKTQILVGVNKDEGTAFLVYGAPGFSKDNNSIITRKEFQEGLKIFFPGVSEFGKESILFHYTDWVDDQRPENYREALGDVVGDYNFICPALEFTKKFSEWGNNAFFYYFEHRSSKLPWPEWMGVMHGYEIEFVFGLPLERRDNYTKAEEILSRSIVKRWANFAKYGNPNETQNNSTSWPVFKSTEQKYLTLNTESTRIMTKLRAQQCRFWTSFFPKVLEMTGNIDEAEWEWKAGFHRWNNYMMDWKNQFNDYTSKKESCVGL

Row | SMILES | IC50 (Cholinesterase) | IC50 (Acetylcholinesterase) | IC50 (Acetylcholinesterase; read-out: IC50) | IC50 (Cholinesterase; read-out: IC50)
1 | O=[N+]([O-])c1ccc(C2CC(c3cccc(O)c3)=Nc3ccccc3S2)cc1 (configuration not stated) | Not Active | Not Active |  | 
2 | Oc1cccc(C2=Nc3ccccc3SC(c3ccccc3F)C2)c1 (configuration not stated) | Not Active |  | 70.6 µM | 
3 | COc1ccc(C2CC(c3cccc(O)c3)=Nc3ccccc3S2)cc1OC (configuration not stated) |  | Not Active |  | 
4 | Oc1cccc(C2=Nc3ccccc3SC(c3cccc(Cl)c3)C2)c1 (configuration not stated) |  | Not Active |  | 
5 | Oc1ccccc1C1=Nc2ccccc2SC(c2ccccc2)C1 (configuration not stated) | Not Active | Not Active |  | 
6 | Oc1ccccc1C1=Nc2ccccc2SC(c2ccc(F)cc2)C1 (configuration not stated) | Not Active | Not Active |  | 
7 | Oc1cccc(C2=Nc3ccccc3SC(c3ccc(Cl)cc3)C2)c1 (configuration not stated) |  |  | 18.8 µM | 76.9 µM
8 | COc1ccc(C2CC(c3ccccc3O)=Nc3ccccc3S2)cc1 (configuration not stated) | Not Active | Not Active |  | 
9 | Oc1cccc(C2=Nc3ccccc3SC(c3ccccc3)C2)c1 (configuration not stated) |  |  | 40 µM | 142 µM
10 | Oc1ccccc1C1=Nc2ccccc2SC(c2ccc(Cl)cc2)C1 (configuration not stated) | Not Active | Not Active |  | 
11 | c1ccc(C2=Nc3ccccc3SC(c3ccccc3)C2)cc1 (configuration not stated) | Not Active | Not Active |  | 
12 | Cc1ccc(C2CC(c3ccccc3O)=Nc3ccccc3S2)cc1 (configuration not stated) | Not Active | Not Active |  | 
13 | COc1ccccc1C1CC(c2cccc(O)c2)=Nc2ccccc2S1 (configuration not stated) |  | Not Active |  | 
14 | O=[N+]([O-])c1ccc(C2CC(c3ccccc3)=Nc3ccccc3S2)cc1 (configuration not stated) |  |  | 102 µM | 60 µM
15 | Oc1ccc(C2CC(c3cccc(O)c3)=Nc3ccccc3S2)cc1 (configuration not stated) | Not Active | Not Active |  | 
16 | Oc1cccc(C2=Nc3ccccc3SC(c3cccs3)C2)c1 (configuration not stated) |  |  | 5.9 µM | 
17 | COc1cc(C2CC(c3cccc(O)c3)=Nc3ccccc3S2)ccc1O (configuration not stated) | Not Active | Not Active |  | 
18 | O=[N+]([O-])c1cccc(C2CC(c3cccc(O)c3)=Nc3ccccc3S2)c1 (configuration not stated) | Not Active | Not Active |  | 
19 | Oc1cccc(C2=Nc3ccccc3SC(c3cccnc3)C2)c1 (configuration not stated) | Not Active | Not Active |  | 
20 | COc1ccc(C2CC(c3ccccc3)=Nc3ccccc3S2)cc1OC (configuration not stated) | Not Active | Not Active |  | 
21 | Oc1cccc(C2=Nc3ccccc3SC(c3cccc(O)c3)C2)c1 (configuration not stated) |  |  | 71.1 µM | 
22 | COc1cccc(C2CC(c3ccccc3O)=Nc3ccccc3S2)c1 (configuration not stated) | Not Active | Not Active |  | 
23 | Oc1ccccc1C1=Nc2ccccc2SC(c2ccc3c(c2)OCO3)C1 (configuration not stated) | Not Active | Not Active |  | 
24 | Cc1ccc(C2CC(c3cccc(O)c3)=Nc3ccccc3S2)cc1 (configuration not stated) |  |  | 49.8 µM | 
25 | Cc1ccc(C2CC(c3ccccc3)=Nc3ccccc3S2)cc1 (configuration not stated) | Not Active | Not Active |  | 
26 | Oc1cccc(C2=Nc3ccccc3SC(c3ccccc3Cl)C2)c1 (configuration not stated) | Not Active | Not Active |  | 
27 | CN(C)c1ccc(C2CC(c3cccc(O)c3)=Nc3ccccc3S2)cc1 (configuration not stated) |  | Not Active |  | 
